Patent US7196063B1, “Peptides and pharmaceutical compositions comprising same” (NST NeuroSurvival Technologies Ltd., priority 1999, dated 2007)
Where “and” joins values, the source holds several entries; their conditions need not be identical. Equal values may be shown once. Entries after “also recorded” stand apart in the source; their conditions may differ. Read-outs that look alike come from different tables or passages of the source.

What was measured:
BeWo cells = assay: Binding to single trophoblast BeWo cells, fluorescent microscopy; assay type: cell-based, Human
Protocol: The Human choriocarcinoma cell line BeWo that express low levels of PS on its plasma membrane (Rote N S et al., 1995, American J. of Reproductive Immunology 33, 114–121), was obtained from ECACC, cat # 86082803 and maintained in Ham's F12+ medium (01095-1A, Bet-Haemek, Israel). The medium was supplemented with 2mM of L-Glutamine; 100 units/ml of penicillin; 100 μg/ml of streptomycin, and 10% fetal calf serum (Bet-Haemek). The cells were passaged using 0.05% trypsine/EDTA (03-054-1B, Bet-Haemek,).

activated platelets = details: 2 μM
Protocol: Exposure of PS on the outer leaflet of platelets upon their activation is essential for efficient activation of coagulation factors. […] Fresh platelets were received from the Blood Bank in Beilinson Hospital, Israel. The platelets were centrifuged (10 minutes, 2700×g), washed and re-suspended in platelets buffer (137 mM NaCl, 2 mM MgCl2, 0.5 mM NaPi, 5 mM glucose and 20 mM Hepes pH 7.4). 100 μl of platelets were diluted 10 fold and activated for 10 minutes with 2 μM of the calcium ionophore A23187 in the presence of 5 mM of CaCl2. […] The platelets were then washed with platelets buffer and incubated with 5 μg/ml of streptavidin conjugated to fluorescein (FITC). Incubation was for 15 minutes at room temperature, followed by a wash and suspention in platelets buffer. The labeled platelets were subjected to a FACS analysis as described above.

[1] = test system: Russell Viper Venom (RVV)-mediated clotting; assay: RVV coagulation test in normal plasma; assay type: biochemical
Protocol: Reactions were started by mixing 100 μl of RVV reagent, and 100 μl of quality control plasma collected from normal individuals (84670-11, Instrumentation Laboratory, Italy). Clotting time was detected by visual inspection following mixing the reaction ingredients in a test tube, until the suspension could no longer be aspirated with a pastuer pipette. Clotting time was measured by two separate researchers.
100 μl of LA screen was then added and clotting time was detected as described.
The control clotting time, when no compound was added to normal plasma was 40 seconds.

apoptotic HeLa cells [2] = assay: Modified APTT test with apoptotic HeLa cells as pro-coagulant surface; assay type: cell-based
Protocol: Apoptotic and control HeLa cells were prepared as described for the FACS analysis. Equal numbers of apoptotic or control non-treated cells (5×10^4) in a volume of […], were mixed with 100 μl of normal plasma, incubated for 1 min at 37° C. in a bath and then calcified by addition of 100 μl of 25 mM CaCl2, and clotting time was measured. Inhibition of the pro-coagulant activity of the apoptotic cells by NST500 compounds was tested following pre-incubation of apoptotic cells for 20 min. at room temperature with increased concentrations of the different NST 500 compounds.
The results can be seen in FIG. 4B.

apoptotic HeLa cells [3] = test system: apoptotic HeLa cells
Protocol: One of the final steps of both intrinsic and extrinsic path-ways of coagulation, is the generation of thrombin from prothrombin. Thrombin is the final protease generated in the sequence of coagulation reaction, and its activity entails conversion of fibrinogen to fibrin, thus forming the clot. Generation of thrombin on the pro-coagulant surface of apoptotic cells was assayed (according to Bombeli T. et al., 1997, Blood 89(7), 2429–2442), by determining its activity, using the chromogenic substrate S-2366 (from Chromogenix, Sweden). Samples of pro-coagulant cells (HeLa cells treated with 500 μM of DA for 18 hours) were used for the assay. Reaction mixture, in a plastic 1 ml cuvette, contained 100 μl of cells (1.5×10^5), 350 μl of HBS (150 mM NaCl, 10 mM Hepes pH 7), and 150 μl of normal control plasma, that was re-calcified with 300 μl of 25 mM CaCl2. The reaction was started by addition of the substrate S-2366 to a final concentration of 0.2 mM, and the kinetics of thrombin activity was determined by optical density at OD405. Data was collected and analyzed by the Swift kinetics software (Pharmacia).

HUVEC cells [4] = assay: Thrombin generation by HUVEC cells; assay type: cell-based, Human
Excerpt: In vivo, vascular endothelial cells are known to catalyze the formation of thrombin, due to expression of PS on their plasma membrane, at which pro-coagulant complexes are assembled (Van Hardee W L et al., 1994, Biochem J. 302, 305–312). Endothelial cells (EC) play an active role in determining the pro-coagulant/anti-coagulant balance in the vascular system (Gimborne M A et al., 1995, Ann. N. Y. Acad Sci 748, 122–132). Perturbed endothelial cells dramatically increase their pro-coagulant state. […] (FIG. 4D). When HUVEC cells (1.5×10^5) were incubated with the S-2366 substrate, thrombin generation was evident after a lag time of 12.5 minutes, which reflects the time required to assemble a functional complex on the HUVEC surface.
The effect of NST516 compound on HUVEC mediated-thrombin generation was studied.

HUVEC cells [5] = assay: Cell-ELISA: binding of anti β2GPI antibodies to HUVEC cells; assay type: cell-based, Human
Protocol: Human β2GPI is a plasma phospholipid binding protein that is required for the binding of autoantibodies in sera from patients with APS to cardiolipin (McNeil H P et al., 1990 Proc. Natl. Acad. Sci. 87, 4120–4124). […] Anti β2GPI antibodies are present in sera of APS patients. […] For cell-ELISA tests, HUVEC cells (at 40,000/well), were plated on 96 well tissue culture plates (Nunc) in 200 μl of the culture medium, and allowed to grow for 18–22 hours. Following 2 washes with Hepes buffer (10 mM Hepes pH 8, 140 mM NaCl) and 5 min incubation with the culture medium, the wells were incubated for 3 hr with 10% of normal plasma in PBS (as a source of β2 GPI protein), supplemented with 1/500 of goat anti-human Apolipoprotein-H (β2 GPI) (Affinity biologicals, PA). Parallel control wells were incubated with 10% of normal plasma from Ilex. Serial dilutions of NST500 compounds were prepared in plasma/PBS. Washes and development were as described for anti CL ELISA.
As presented in FIG. 5B, in the presence of plasma and absence of NST500, HUVEC cells supported binding of anti β2GPI to their surface. However, displacement of anti β2GPI by NST500 compounds in this system occurred in a concentration dependent manner, similar to the results obtained with CL.

With “Myristate-KVSFFCKNKEKKC-K (SEQ ID NO:1) (biotin) [NST513]” the “binding to BeWo cells” value (BeWo cells) was “Typical membrane labeling is observed; also recorded: Binding of the compound to the whole population of BeWo cells was demonstrated”, the “binding intensity (FITC mean value), activated vs control non-treated platelets” value (activated platelets) was 20 times and the “increase in the percentage of platelets stained with FITC upon activation” value (activated platelets; activated (A23187) vs control platelets) was 6 fold. The EC50 ([1]; RVV clotting time, read-out: EC50 (effective dose of 50%)) was 3 to 5 µM, the “prolongation of clotting time (factor)” value ([1]; RVV test, normal plasma, 2.5–20 μM, control 40 seconds) was 3.75 and 3.5 and the “effect on clotting time of apoptotic cells” value (apoptotic HeLa cells [2]; 2.5–2.2 μM) was “marked and dose dependent inhibition of clotting time; also recorded: dose-dependent effect”. For the same substance, the “increase of clotting time of apoptotic cells (factor)” value (apoptotic HeLa cells [2]; 2.5–2.2 μM) was 3.2 times, the “clotting time of apoptotic cells” value (apoptotic HeLa cells [2]; apoptotic cells alone 50 seconds, control cells 80 seconds) was 160 s and the “change of time needed for obtaining 50% of thrombin activity (factor)” value (apoptotic HeLa cells [3]; 5 μM) was 1.5. For the same substance, the “change of time needed for obtaining 50% of thrombin activity (factor)” value (apoptotic HeLa cells [3]; 10 μM) was 2.6, the “thrombin generation by apoptotic cells” value (apoptotic HeLa cells [3]; 10 μM) was “rate of thrombin generation was also inhibited” and the “thrombin generation by apoptotic cells” value (apoptotic HeLa cells [3]; 25 μM) was “fully block”. The “thrombin activity (reflecting thrombin generation), dose response” value (apoptotic HeLa cells [3]; 5–50 μM) was “effectively inhibited”, the “thrombin generation by apoptotic cells” value (apoptotic HeLa cells [3]; 25–50μM) was “Total blockage of thrombin generation” and the “delay in thrombin generation” value (HUVEC cells [4]) was 2.5 min. For the same substance, the “thrombin generation by HUVEC cells” value (HUVEC cells [4]) was “dramatic inhibition of thrombin generation; also recorded: fully block thrombin generation; also recorded: slight inhibition of thrombin generation; also recorded: further delayed the lag period; also recorded: total blockage of thrombin formation”, the “thrombin generation by HUVEC cells, dose response” value (HUVEC cells [4]) was “dose dependent inhibition of thrombin generation” and the “less potent than NST516 in blocking anti β2 GPI binding” value (HUVEC cells [5]) was 50%.
